Reference: US5279935A, “Method of immunossay including deactivation of endogenous alkaline phosphatase” (Becton, Dickinson and Company, priority 1990, dated 1994)
Like-named read-outs stand apart in the source and are kept apart here.

Legend:
E. coli AP = E. coli AP (Escherichia coli, UniProt P00634); type: biochemical
[1] = tested on: endogenous AP in uninfected MDCK cells; parameters: species or system canine
[2] = 4.8 units/test of E. coli AP spike
[3] = 4.8 units/test of E. coli AP spike, no antigen, acid wash 0.15M
[4] = 600 ng uninfected MDCK cells, acid wash 0.15M

Chain of E. coli AP (P00634 22-471): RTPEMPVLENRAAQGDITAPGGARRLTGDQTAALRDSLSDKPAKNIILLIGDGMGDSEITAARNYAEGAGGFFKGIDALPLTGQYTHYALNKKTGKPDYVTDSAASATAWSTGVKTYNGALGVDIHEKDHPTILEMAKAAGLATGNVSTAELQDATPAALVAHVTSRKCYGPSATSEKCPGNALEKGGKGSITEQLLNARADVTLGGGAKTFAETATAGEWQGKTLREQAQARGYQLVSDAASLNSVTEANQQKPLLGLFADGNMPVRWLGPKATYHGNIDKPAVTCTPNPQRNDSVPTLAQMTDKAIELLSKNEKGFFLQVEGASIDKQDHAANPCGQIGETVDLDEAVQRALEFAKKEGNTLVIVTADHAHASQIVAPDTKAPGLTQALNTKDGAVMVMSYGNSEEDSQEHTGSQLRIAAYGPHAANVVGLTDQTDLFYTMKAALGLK

SMILES | reduction of signal due to the AP spike in comparison to the control (no acid) (E. coli AP; [2]) | reflectance (E. coli AP; [3]) | Reflectance (arbitrary units) [1, 4] | visual (E. coli AP; [3]) | reflectance (E. coli AP) | visual (E. coli AP) | Reflectance (arbitrary units) [1]
O=C(O)CC(O)(CC(=O)O)C(=O)O [A, citric acid] | most effective | .03 | .12 arbitrary units |  |  |  | 
O=C(O)CCCC(=O)O [B, glutaric acid] |  | .06 | .10 arbitrary units | (+) |  |  | 
O=C(O)C(O)C(O)C(=O)O (stereo not drawn) [C, tartaric acid] | most effective | .04 | .10 arbitrary units |  |  |  | 
O=C(O)CCC(=O)O [D, succinic acid] |  |  |  |  | .06 | (+) | .10 arbitrary units
O=C(O)CC(O)C(=O)O (stereo not drawn) [E, malic acid] |  | .06 | .12 arbitrary units | (+) |  |  | 
CC(O)C(=O)O (stereo not drawn) [F, lactic acid] |  | .06 | .12 arbitrary units | (+) |  |  | 
